In patent publication US12011452B2, “Compositions and methods for treatment of mitochondrial respiratory chain dysfunction and other mitochondrial disorders” (The Children's Hospital of Philadelphia, priority 2018, dated 2024):
Where a name gives a salt, the structure may show the parent alone. Read-outs that look alike come from different tables or passages of the source.

Key:
N2 = assay: GSH levels in worms by HPLC-ECD after GSH depleting agent; assay type: in vivo, C. elegans; conditions: treated for 24 hours
Description: FIG. 28. Effect of the GSH Depleting agent, Diethyl Maleate (DEM). Worms were treated with DEM for 24 hours.
GSH levels are an important parameter to evaluate the physiological effects of mitochondrial disease. In the present example, the development and optimization of an HPLC-ECD assay to sensitively quantify reduced (GSH) and oxidized (GSSG) glutathione levels in C. elegans is described. We have optimized each of the following: mobile phase buffer composition, homogenization conditions, deproteinizing conditions and reducing agents.

hsp-6p::GFP [1] = assay: Mitochondrial stress (UPRmt) hsp-6p::GFP induction in dld-1 RNAi worms; assay type: in vivo, C. elegans; conditions: dld-1 RNAi worms; conc.: Nicotinic Acid 1 mM; Riboflavin 10 uM; Thiamine 25 mM; L-Carnitine 100 uM; Folinic Acid 10 uM; Glucose 10 uM; DCA 25 mM; Cysteamine 100 um; NAC 2.5 Mm; AICAR 500 uM; Hydralazine 200 uM; Lithium Chloride 10 mM; Cyclohexamide 2 uM; Arginine 10 mM; Taurine 800 uM; Resveratrol 50 uM; Rapamycin 2.5 nM; Probucol 5 uM; Lipoic Acid 10 uM; Vitamin E 250 uM
Description: (§1) Brood size analysis—Worms were synchronized by picking ten to fifteen N2 gravid adult worms onto NGM plates containing 0.2 mM IPTG, ampicillin and tetracycline spread with DLD-1 (LLCI.3) or L4440 bacteria and allowed to lay eggs for 2-2.5 hours. A single L4 larvae from the egg lay was placed on a 4 mm dish containing NGM and corresponding RNAi clone and allowed to lay eggs for 24 hours before being transferred to a fresh 4 mm NGM plate. Worms were transferred to fresh plates for 5 days and progeny were counted from each plate. Western blot analysis—Approximately 500 young adult worms were briefly washed with S. basal media before resuspension in 250 uL of RIPA buffer (50 mM Tris HCl, pH 8.0, 150 mM NaCl, 1.0% NP-40, 0.5% sodium deoxycholate, 1.0 mM EDTA, 0.1% SDS) containing a 1/100 dilution of Protease inhibitor cocktail (Sigma). Worms were lysed using a mechanical hand homogenizer and pestle on ice and the resulting lysate was maintained at constant agitation for 30 minutes at 4° C. Lysate was subsequently centrifuged for 20 minutes at 16,000 rpm and the supernatant was removed. Protein concentration was determined using the Pierce BCA protein assay kit. 30 ug of whole cell lysate was utilized and blots were probed with anti-LAD monoclonal antibody at a 1:7500 dilution (abcam) to detect the DLD-1 protein. As a loading control blots were additionally probed with anti-Beta tubulin (source) at a […]. Chemotaxis Assay—Chemotaxis analysis was performed as has been previously described (Haroon, S. J. of Cell Reports (2018); pmid:29562168). In brief, approximately 30 worms were collected and washed with S. basal media. Worms were placed 5 cm away from a spot containing 2 uL of 10% isoamyl alcohol dissolved in 100% ethanol and 1 uL of 10% sodium azide. After one hour distance traveled by each worm was marked and analyzed via image J. Length Analysis—A synchronized population of worms grown on L4440 and LLCI.3 RNAi clones were monitored from the L4 stage of development till day 5 of adulthood. On the day of length analysis […] Quantification of Hsp6::GFP induction—A synchronized egg lay using 15-20 Hsp6::GFP gravid young adult worms on L4440 or LLCI.3 RNAi clones was performed to induce depletion of DLD-1 protein. Day 1 young adult worms were washed once in 4-5 mL of S. basal in a 50 mL conical tube and pelleted by centrifugation at 1300×g for 1 minute. Spent S. basal was removed and worms were resuspended in a final volume of 10 mL in preparation for biosorter analysis. An excitation wavelength of 488 nm and emission filter of 510 nm was utilized to measure induction of Hsp6::GFP induction in individual worms. Experiments were conducted with approximately 300 worms per sample with three biological replicates for each condition tested.
(§2) DLD depletion in C. elegans was achieved by feeding wild-type (N2 Bristol) worms E. coli expressing a dsRNA targeting DLD-1 messenger RNA. Brood size, survival, activity, growth (length), DLD-1 expression, and mitochondrial unfolded protein response (UPR^mt) were quantified in the resulting DLD-1^−/− animals. High throughput semi-automated analyses of animal growth (length) and mitochondrial stress response (UPR^mt) were also measured in day 1 adult worm populations using the COPAS Biosorter (Union Biometrica).
(§3) Therapeutic impact on DLD-1^−/− C. elegans UPR^mt induction and growth (length), as well as DLDH−/− zebrafish survival, liver morphology, and swimming behavior were tested for 5 therapies, including a PDH activator (dichloroacetate, DCA), PDH cofactors (thiamine, riboflavin, lipoic acid), and a lipid lowering drug that functions as a signaling modifier to inhibit mTORCI and activate AMPK and PPAR (probucol).

[2] = cited from earlier work
gas-1(fc21) C. elegans = assay: Lifespan of gas-1(fc21) Complex I NDUFS2 mutant worms; assay type: in vivo; conditions: administered at development (L1); previous studies in applicant's lab
[3] = tested on: DLD-1 deficient (did-1 RNAi) C. elegans; assay: Animal size (length) of DLD-1 deficient (dld-1 RNAi) worms, COPAS Biosorter; assay type: in vivo; conditions: dld-1 RNAi worms; conc.: Nicotinic Acid 1 mM; Riboflavin 10 uM; Thiamine 25 mM; L-Carnitine 100 uM; Folinic Acid 10 uM; Glucose 10 uM; DCA 25 mM; Cysteamine 100 um; NAC 2.5 Mm; AICAR 500 uM; Hydralazine 200 uM; Lithium Chloride 10 mM; Cyclohexamide 2 uM; Arginine 10 mM; Taurine 800 uM; Resveratrol 50 uM; Rapamycin 2.5 nM; Probucol 5 uM; Lipoic Acid 10 uM; Vitamin E 250 uM
Description: RNAi feeding—DLD-1 RNAi clone (LLC1.3) was obtained from the Ahringer RNAi collection and was sequence confirmed prior to use. The vector L4440 was utilized as a control.
as §1, §2, §3

NUBPL^−/− C. elegans = assay: Lifespan of NUBPL-/- C. elegans model of Complex I disease; assay type: in vivo; conditions: Glu 10 mM, NAC 2.5 mM, DCA 25 mM, single biological replicate
Source text: We obtained a genetic knockout NUBPL (34.7% homology) worm strain TM3754 from the National BioResource Project, which has a 478 base pair deletion. […] The mutation in this strain is currently not balanced, so to balance it and obtain a homozygous mutant strain we have outcrossed it with FX30168 tm18[dpy-5(tmIs1236)]).
These animal models can be used to advantage for identifying new agents useful for the treatment of mitochondrial and other respiratory chain disorders. […] NUBPL is a nuclear gene-encoded complex I assembly factor, in which autosomal recessive (biallelic) mutations cause severe human mitochondrial disease manifesting with cerebellar ataxia and Leigh syndrome.

[4] = tested on: rotenone treated zebrafish; assay: Rotenone model of brain death in zebrafish; conditions: in vivo
Description: FIG. 36B) Wild-type (AB) fish are pre-exposed to drug treatments in their water from 5 days post fertilization (dpf) to 7 dpf. On 7 dpf, Zebrafish are co-treated with 150 nM of Rotenone (complex I inhibitor) and the same drug treatment(s). Zebrafish are then placed on the automated Zebrabox (Viewpoint) for 20 minutes of light at 60% followed by 20 minutes of darkness (eg, light at 0%) to induce a neurobehavioral startle response. The activity from the startle response is binned to 5 minute, and shown here as average activity at 581 minutes post-rotenone exposure. Activity score is normalized using percent of control (POC) to wild-type AB fish. […] Error bars convey standard error of mean. *, p<0.05; **, p<0.01; ***, p<0.001 by Student's T test. Glu, 10 mM glucose. […] NAC, 2.5 mM N-acetylcysteine. […] FIG. 36D+36E.

[5] = cited from earlier work; remark: listed apart in the source
gas-1(fc21) worms = assay: Mitochondrial physiology (TMRE, MitoSOX, MitoTracker Green) in gas-1(fc21) worms; assay type: in vivo, C. elegans; conditions: 24 hour treatment
Description: Mitochondrial oxidant burden (MitoSOX Red), membrane potential (tetramethylrhodamine ethyl ester, TMRE), and mitochondrial content (MitoTracker Green FM, MTG) were performed in C. elegans at 20° C. using in vivo terminal pharyngeal bulb relative fluorescence microscopic quantitation. […] Simultaneously with the drug treatments, worms were treated with either 10 μM MitoSOX Red (matrix oxidant burden), 100 nM TMRE (mitochondrial membrane potential), or 2 μM MitoTracker Green FM (mitochondria content) for 24 h. The next day, worms were transferred with a pick onto 35 mm agar plates spread with OP50 E. coli without dye for 1 h to allow clearing of residual dye from the gut. Worms were then paralyzed in situ with 5 mg/ml levamisole. Photographs were taken in a darkened room at 160× magnification with a Cool Snap cf2 camera (Nikon, Melville, N.Y.). A CY3 fluorescence cube set (MZFLIII, Leica, Bannockburn, IL) was used for MitoSOX and TMRE. […] Fluorescence data for each strain were normalized to its same day control to account for day-to-day variation. […] The significance of the difference in the mean fluorescence intensity between strains under different experimental conditions was assessed by mixed-effect ANOVA, which analyzes potential batch effect due to samples being experimentally prepared, processed, and analyzed on different days by including a batch random effect in the model. […]

SURF1-del1−/− zebrafish = assay: SURF1 knockout zebrafish pre-treatment before NaN3 exposure: brain death, startle response; assay type: in vivo
Source text: The phenotypes assessed can include without limitation, swimming activity or swimming fatigue, organ structural impairment or dysfunction gray brain alterations in mitochondrial physiology (=brain death) (FIG. 36C), heart rate, startle (tap) response (stimulus on plate), and touch response (stimulus on animal).
hsp-6p::GFP [6] = assay: UPRmt in K09A9.5 (gas-1) knockdown hsp-6p::gfp reporter worms; assay type: in vivo, C. elegans; conditions: 10 mM Glu, 2.5 mM NAC, 1 mM Nicotinic acid
Description: UPRmt in C. elegans is assessed using a GFP reporter for hsp-6.

[7] = pre-treated from 5 dpf, 45 μM NaN3 from 6 dpf, assessed 7 dpf

| Structure (SMILES) | GSH levels (N2) | HSP-6P::GFP (hsp-6p::GFP [1]) | half-life ([2]; adults) | metabolism ([2]; in vivo) | urine excretion ([2]; in vivo) | half-life ([2]; neonates) | rescue of short lifespan of gas-1(fc21) to wild type N2 levels by individual compounds (gas-1(fc21) C. elegans) | Size [3] | median lifespan of NUBPL−/− worms (NUBPL^−/− C. elegans) | median lifespan of NUBPL−/− worms (NUBPL^−/− C. elegans; listed as N-acetylcysteine) | effect on rotenone treated (stressor) brains of zebrafish [4] | solubility in chloroform and ether [5] | solubility in water and alcohol [5] | effect on reduced mitochondrial membrane potential (gas-1(fc21) worms) | effect on sodium azide treated (stressor) brains of surf1 KO zebrafish (SURF1-del1−/− zebrafish; FIG. 36D) | decompensation from acute low-dose CIV inhibition (SURF1-del1−/− zebrafish; SURF1−/− animals) | brain death from NaN3 exposure (SURF1-del1−/− zebrafish; [7]) | neuromuscular dysfunction (startle response) from NaN3 exposure (SURF1-del1−/− zebrafish; [7]) | UPRmt stress response (hsp-6p::gfp fluorescence) (hsp-6p::GFP [6]) |
| --- | --- | --- | --- | --- | --- | --- | --- | --- | --- | --- | --- | --- | --- | --- | --- | --- | --- | --- | --- |
| CCOC(=O)/C=C\C(=O)OCC [DEM, Diethyl Maleate] | dose-dependently reduced | – | – | – | – | – | – | – | – | – | – | – | – | – | – | – | – | – | – |
| CC(=O)N[C@@H](CS)C(=O)O [NAC, N-acetylcysteine] | – | No Effect | 5.6 h | extensively liver metabolized | 22-30% | 11 h | partially or fully rescue | No Effect | significantly rescued | improve | Protective effects | practically insoluble | soluble | significantly increases | protective effects | preventing | prevented | prevented | significantly reduce |
